From patent US11071731B2, “Allosteric modulators of the mu opioid receptor” (Chiromics, LLC, priority 2017, dated 2021)

Tests used:
[1] = target: T1, mu opioid receptor (MOR) (Homo sapiens, UniProt P35372); assay: Hit Hunter cAMP signaling assay (adenylyl cyclase inhibition), PAM mode with EC20 endomorphin-1; type: cell-based
[2] = target: T1, mu opioid receptor (MOR); assay: PathHunter β-arrestin recruitment assay, PAM mode with EC20 endomorphin-1; type: cell-based; conditions: for EC50: read-out: β-arr. EC50
Summary of the method: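 Enzyme fragment complementation read-out: β-gal ED fragment fused to receptor, EA fused to β-arrestin, recruitment restoring β-gal activity detected by chemiluminescence. EC50 and percent maximal response derived for each compound.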

[3] = adenylyl cyclase inhibition, read-out: cAMP EC50
[4] = maximal response for adenylyl cyclase inhibition
[5] = maximal response for β-arrestin recruitment
[6] = cAMP EC50, adenylyl cyclase inhibition
[7] = maximal response, adenylyl cyclase inhibition
[8] = maximal response, β-arrestin recruitment

T1 sequence (P35372 whole entry): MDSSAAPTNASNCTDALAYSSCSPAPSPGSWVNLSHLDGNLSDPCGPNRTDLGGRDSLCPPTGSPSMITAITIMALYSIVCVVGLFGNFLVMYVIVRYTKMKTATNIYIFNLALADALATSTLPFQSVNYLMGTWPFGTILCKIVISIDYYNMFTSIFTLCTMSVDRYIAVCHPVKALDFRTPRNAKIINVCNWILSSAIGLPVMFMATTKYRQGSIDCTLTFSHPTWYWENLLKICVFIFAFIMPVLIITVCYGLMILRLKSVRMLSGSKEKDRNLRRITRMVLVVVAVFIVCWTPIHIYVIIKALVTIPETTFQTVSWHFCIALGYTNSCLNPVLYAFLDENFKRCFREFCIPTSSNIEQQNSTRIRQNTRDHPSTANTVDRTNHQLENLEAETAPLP

SMILES	EC50 [1, 3] [nM]	cAMP Max. Resp. [1, 4]	β-arr Max. Resp. [2, 5]	EC50 ([2]; β-arrestin recruitment) [nM]	EC50 [1, 6] [nM]	cAMP Max. Resp. [1, 7]	β-arr Max. Resp. [2, 8]
Fc1cc(C2CCC(OCCN3CCOCC3)CN2c2nc(Cl)ncc2F)cc(C(F)(F)F)c1 (stereo not drawn) [compound 304]	> 2100	D (D represents a maximal response of < 40%)	D (D represents a maximal response of < 40%)	> 2100	–	–	–
Fc1cc(C2CSCCN2c2nc(Cl)ncc2F)cc(C(F)(F)F)c1 (racemic) [Compound 301]	< 700	E (E represents a maximal response of 40-60%)	F (F represents a maximal response of > 60%)	700 to 2100	–	–	–
Fc1ccc(C2CCCCN2c2nc(Cl)ncc2F)cc1Cl (single isomer, unassigned) [compound 343]	< 700	D (D represents a maximal response of < 40%)	D (D represents a maximal response of < 40%)	< 700	–	–	–
[2H]C1(c2cccc(C(F)(F)F)c2)C(F)CCCN1Cc1cccc(Cl)c1 (stereo not drawn) [compound 204]	–	F (F represents a maximal response of > 60%)	F (F represents a maximal response of > 60%)	700 to 2100	700 to 2100	–	–
O=S(=O)(c1cc(F)ccc1F)N1CCCC(F)C1c1ccc(F)c(Br)c1 (stereo not drawn) [Compound 38]	> 2100	–	–	> 2100	–	–	–
COc1ncc(F)c(N2CCCCC2c2ccc(F)c(Cl)c2)n1 (stereo not drawn) [compound 461]	–	–	–	> 2100	> 2100	E (E represents a maximal response of 40-60%)	F (F represents a maximal response of > 60%)
[2H]C1(c2ccc(F)c(Br)c2)C(F)CCCN1S(=O)(=O)c1ccc(Cl)cc1F (stereo not drawn) [Compound 37]	–	D (D represents a maximal response of < 40%)	F (F represents a maximal response of > 60%)	–	–	–	–
COc1ccc(C2CCCCN2c2nc(Cl)c(C#N)cc2F)cc1Br (stereo not drawn) [compound 449]	–	–	–	> 2100	> 2100	D (D represents a maximal response of < 40%)	F (F represents a maximal response of > 60%)
COC(=O)c1cc(C2CCCCN2S(=O)(=O)c2ccc(Cl)cc2)ccn1 (racemic) [compound 81]	> 2100	D (D represents a maximal response of < 40%)	E (E represents a maximal response of 40-60%)	> 2100	–	–	–
COc1cc(C2CCCCN2c2nc(Cl)ncc2F)ccc1Br (stereo not drawn) [compound 288]	–	E (E represents a maximal response of 40-60%)	F (F represents a maximal response of > 60%)	> 2100	> 2100	–	–
Fc1ccc(C2CC(C(F)(F)F)CN2c2nc(Cl)ncc2F)cc1Cl (stereo not drawn) [compound 476]	> 2100	–	–	> 2100	–	D (D represents a maximal response of < 40%)	E (E represents a maximal response of 40-60%)
Fc1ccc(Cl)cc1C1CCCCN1c1ccnc(Cl)n1 (stereo not drawn) [compound 406]	–	D (D represents a maximal response of < 40%)	D (D represents a maximal response of < 40%)	< 700	< 700	–	–
FC(F)(F)c1cccc(C2CCCCN2Cc2ccc(Cl)c(Cl)c2)n1 (stereo not drawn) [compound 153]	–	D (D represents a maximal response of < 40%)	F (F represents a maximal response of > 60%)	> 2100	> 2100	–	–
O=S(=O)(c1ccc(Cl)cc1)N1CCCCC1c1ccc(F)c(Br)c1 (single isomer, unassigned) [compound 56]	700 to 2100	E (E represents a maximal response of 40-60%)	F (F represents a maximal response of > 60%)	> 2100	–	–	–
Fc1cnc(Cl)nc1N1CCCCC1c1cnc2cnccn12 (stereo not drawn) [compound 338]	–	D (D represents a maximal response of < 40%)	D (D represents a maximal response of < 40%)	< 700	< 700	–	–
CC1CCN(S(=O)(=O)c2ccc(Cl)cc2)C1c1ccc(Cl)c(C(F)(F)F)c1 (mixture of isomers) [Compound 87]	> 2100	D (D represents a maximal response of < 40%)	F (F represents a maximal response of > 60%)	> 2100	–	–	–
COc1ccc(C2CC(C)CN2S(=O)(=O)c2ccc(Cl)cc2)cc1Br (single isomer, unassigned) [Compound 118]	> 2100	D (D represents a maximal response of < 40%)	E (E represents a maximal response of 40-60%)	700 to 2100	–	–	–
COc1ccc(C2CCCCN2c2ncc(C)c(Cl)n2)cc1Br (stereo not drawn) [compound 236]	–	F (F represents a maximal response of > 60%)	F (F represents a maximal response of > 60%)	> 2100	> 2100	–	–
Fc1ccc(C2CCCCN2c2nc(Cl)ncc2F)cc1Cl (stereo not drawn) [compound 121]	–	E (E represents a maximal response of 40-60%)	F (F represents a maximal response of > 60%)	< 700	< 700	–	–

SMILES	EC50 [1, 3] [nM]	cAMP Max. Resp. [1, 4]	β-arr Max. Resp. [2, 5]	EC50 ([2]; β-arrestin recruitment) [nM]	EC50 [1, 6] [nM]	cAMP Max. Resp. [1, 7]	β-arr Max. Resp. [2, 8]
Fc1cnc(Cl)nc1N1CCOCC1c1cccc(C(F)(F)F)c1 (racemic) [Compound 188]	700 to 2100	E (E represents a maximal response of 40-60%)	F (F represents a maximal response of > 60%)	> 2100	–	–	–
Fc1ccc(C2CCCCN2c2nc(Cl)ncc2F)cc1Br (stereo not drawn) [compound 124]	–	E (E represents a maximal response of 40-60%)	F (F represents a maximal response of > 60%)	< 700	< 700	–	–
Fc1cnc(Cl)nc1N1CCCCC1c1ccc(Cl)c(Cl)c1 (stereo not drawn) [compound 331]	–	D (D represents a maximal response of < 40%)	D (D represents a maximal response of < 40%)	< 700	< 700	–	–
FC(F)(F)c1cccc(C2CCCCN2c2ccnc(Cl)n2)c1 (stereo not drawn) [compound 257]	–	D (D represents a maximal response of < 40%)	F (F represents a maximal response of > 60%)	> 2100	> 2100	–	–
O=S(=O)(c1ccc(Cl)cc1)N1CCCCC1c1ccc(Cl)c(C(F)(F)F)c1 (single isomer, unassigned) [compound 220]	700 to 2100	D (D represents a maximal response of < 40%)	F (F represents a maximal response of > 60%)	> 2100	–	–	–
Fc1ccc(C2CCCCN2Cc2cncc(Cl)c2)cc1Cl (stereo not drawn) [compound 147]	–	D (D represents a maximal response of < 40%)	F (F represents a maximal response of > 60%)	> 2100	> 2100	–	–
O=S(=O)(Cc1ccc(Cl)cc1)N1CCCCC1c1cccc(C(F)(F)F)c1 (stereo not drawn) [Compound 22]	> 2100	D (D represents a maximal response of < 40%)	F (F represents a maximal response of > 60%)	> 2100	–	–	–
Fc1cc(Cl)cc(C2CCCCN2c2nc(Cl)ncc2F)c1 (single isomer, unassigned) [compound 420]	–	–	–	< 700	–	D (D represents a maximal response of < 40%)	D (D represents a maximal response of < 40%)
CC1CCN(S(=O)(=O)c2ccc(Cl)cc2)C1c1ccc(F)c(F)c1F (mixture of isomers) [Compound 98]	> 2100	D (D represents a maximal response of < 40%)	E (E represents a maximal response of 40-60%)	> 2100	–	–	–
Cc1cc(C2C(C)CCN2S(=O)(=O)c2ccc(Cl)cc2)ccc1F (mixture of isomers) [Compound 101]	< 700	D (D represents a maximal response of < 40%)	F (F represents a maximal response of > 60%)	700 to 2100	–	–	–
Oc1cnc2ccc(C3CCCCN3c3nc(Cl)ncc3F)cc2c1 (stereo not drawn) [compound 393]	–	D (D represents a maximal response of < 40%)	D (D represents a maximal response of < 40%)	< 700	< 700	–	–
Fc1ccc(C2CCCCN2c2cccnc2N2CCOCC2)cc1Cl (stereo not drawn) [compound 479]	> 2100	–	–	> 2100	–	D (D represents a maximal response of < 40%)	F (F represents a maximal response of > 60%)
COc1ccc(C2CCCCN2c2cncc(C(F)(F)F)n2)cc1Br (stereo not drawn) [compound 230]	–	F (F represents a maximal response of > 60%)	F (F represents a maximal response of > 60%)	> 2100	> 2100	–	–
FC(F)(F)c1cccc(C2CCCCN2c2cc(Cl)ncn2)c1 (stereo not drawn) [compound 360]	–	D (D represents a maximal response of < 40%)	D (D represents a maximal response of < 40%)	< 700	< 700	–	–
Cc1nnc(C2CCCCN2c2nc(Cl)ncc2F)o1 (stereo not drawn) [compound 363]	–	D (D represents a maximal response of < 40%)	D (D represents a maximal response of < 40%)	< 700	< 700	–	–
Fc1ccc(C2CSCCN2c2nc(Cl)ncc2F)cc1Cl (stereo not drawn) [Compound 460]	> 2100	–	–	> 2100	–	F (F represents a maximal response of > 60%)	F (F represents a maximal response of > 60%)
O=S(=O)(Cc1ccc(Cl)cc1)N1CCCC(F)C1c1ccc(F)c(Br)c1 (stereo not drawn) [Compound 33]	> 2100	–	–	> 2100	–	–	–
O=S(=O)(Cc1ccccc1Cl)N1CCCCC1c1cccc(C(F)(F)F)c1 (stereo not drawn) [Compound 24]	> 2100	D (D represents a maximal response of < 40%)	F (F represents a maximal response of > 60%)	> 2100	–	–	–
